Measured values: publication PMC9504029, “Identification and Characterization of Novel Small-Molecule SMOX Inhibitors” (Medical Sciences, 2022)

Experiments:
SMOX = molecular target: T1, SMOX (Homo sapiens, UniProt Q9NWM0); test: Mechanism of inhibition and enzyme kinetics (Lineweaver–Burk, global fit); type: biochemical
T1 construct: using 0.3 µg/mL of purified SMOX enzyme and 2 mM of spermine substrate
Experimental: The mechanism of enzyme inhibition was determined using the HRP-luminol coupled enzyme assay described above. Reaction velocity (max RLU/sec over 10 min) was measured across multiple substrate and inhibitor concentrations, and individual triplicate values were plotted using a Lineweaver–Burk transformation (double-reciprocal) in GraphPad Prism 9.3 software (Graph-Pad, San Diego, CA, USA).

SH-SY5Y cells = test: ROS production following acute excitotoxic stress, CM-H2DCFDA; type: cell-based, human; settings: 8 mM glutamate, 1 h, p < 0.0001
Experimental: To measure intracellular ROS production following acute excitotoxic stress, a CM-H2DCFDA (Invitrogen) probe was used. The SH-SY5Y cells were incubated in the presence of dichlorodihydrofluorescein diacetate (CM-H2DCFDA, Invitrogen), 20 µM in HBSS, at 37 °C for 30 min. The cells were then pelleted and washed with HBSS buffer (without phenol red, magnesium, or calcium). Phosphate buffer was not used to prevent the formation of polyamine–phosphate complexes. The cells were then resuspended in 96-well plates (Greiner #655086; black walled, cleat flat bottom) at a concentration of 1 × 10^6 cells/mL in HBSS containing 0–100 µM of inhibitor and 8 mM of glutamate. Dichlorodihydrofluorescein (DCF) fluorescence was monitored over 1 h (ex 488 nm, em 530 nm). The increase in fluorescence was reported as the % activity of control wells in the absence of the inhibitor. Fluorescent readout was obtained using a SpectraMax M5 plate reader (Molecular Devices) equipped with SOFTmax PRO 7.0.3 software. All test compounds were assessed for fluorescent activity at 530 nm prior to experimentation. The statistical analysis was conducted in GraphPad Prism 9.3 software (Graph-Pad, San Diego, California) using a one-way ANOVA with multiple comparisons (α = 0.05).

[1] = tested on: SH-SY5Y neuroblastoma cells; test: Cell viability following excitotoxic stress (glutamate), MTS assay; type: cell-based, human; settings: 80 mM glutamate
Experimental: SH-SY5Y neuroblastoma cells purchased from ATCC (Manassas, VA, USA) were cultured in Dulbecco’s modified Eagle medium (DMEM) without phenol red and supplemented with 10% heat inactivated human AB serum, 4 mM L-glutamine, and 1% penicillin/streptomycin. As the oxidation of spermine by various polyamine oxidases has been documented in cell culture containing ruminant serum, such as in fetal bovine serum (FBS) and horse serum, human AB serum was used to prevent assay interference. The cells were maintained in 5% CO2 humidified atmosphere at 37 °C. Cell media was replaced every 2 days and the cells were discarded after a maximum of 15 passages.
The SH-SY5Y neuroblastoma cells were plated at a density of 1 × 10^6 cells/mL in 96-well plates (Costar #9018; clear flat bottom) and allowed to adhere overnight. Media was aspirated and the cells were then treated with low-serum culture media (containing 5% human AB serum), 80 mM of glutamate, and varying concentrations of compound. The glutamate and test compounds were added simultaneously with no pre-incubation period. Cell viability was measured at 16 h and 24 h post-treatment by a standard MTS assay (0.33 mg/mL incubated at 37 °C for 3 h). Absorbance was read at 490 nm following 3-h incubation with MTS reagent. […]

LSD1 = molecular target: T2, LSD1 (Homo sapiens, UniProt O60341); test: LSD1 selectivity assay (Cayman kit, resorufin fluorescence); type: biochemical; settings: read-out: % Inhibition at 20 μM ± SD, LSD1
T2 construct: purchased Cayman Chemical #700120

T1 sequence (Q9NWM0 whole entry): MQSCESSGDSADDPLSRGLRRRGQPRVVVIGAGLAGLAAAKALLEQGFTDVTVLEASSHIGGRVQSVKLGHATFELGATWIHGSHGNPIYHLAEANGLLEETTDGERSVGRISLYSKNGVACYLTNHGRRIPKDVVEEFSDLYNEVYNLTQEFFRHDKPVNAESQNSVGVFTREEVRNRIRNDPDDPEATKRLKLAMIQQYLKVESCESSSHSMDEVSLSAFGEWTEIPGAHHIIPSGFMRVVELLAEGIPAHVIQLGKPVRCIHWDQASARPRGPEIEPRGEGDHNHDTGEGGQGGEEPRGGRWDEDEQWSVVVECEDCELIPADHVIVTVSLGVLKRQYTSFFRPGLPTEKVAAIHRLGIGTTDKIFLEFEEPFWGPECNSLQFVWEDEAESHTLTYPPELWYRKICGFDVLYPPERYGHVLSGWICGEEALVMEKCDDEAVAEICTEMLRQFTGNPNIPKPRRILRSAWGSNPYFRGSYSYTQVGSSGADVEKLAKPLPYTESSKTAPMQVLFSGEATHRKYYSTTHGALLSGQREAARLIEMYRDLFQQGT

Cc1cc([C@H](O)CNCCCNC(=N)N)cc(C)c1O [Compound 6]
Mechanism of inhibition (SMOX; Lineweaver–Burk analysis): competitive | Ki (SMOX; global fit for competitive inhibition, inhibitor 0, 0.1, 1 µM): 1.6 µM | Production of ROS vs vehicle control (SH-SY5Y cells; 10 µM compound): significantly decreased the production of ROS | Production of ROS vs vehicle control (SH-SY5Y cells; 50 µM compound, p = 0.0004 vs 10 µM): significantly decreased the production of ROS | Cell viability vs vehicle control and MDL 72527 ([1]; 24 h, 1 mM compound, p = 0.0001 vs vehicle, p = 0.0003 vs MDL 72527): significantly increased cell viability | viability at 100 µM ([1]; Homo sapiens, SH-SY5Y, 16 h, 100 µM compound, vehicle 26.5%, not statistically significant): 48.3% | inhibition at 20 µM (LSD1): -24.2 ± 4.5%
